# ± gives the expanded uncertainty stated by the source.
# Conditions: Metastable liquid, Gas chromatography
SMILES,vapor or sublimation pressure (298.15 K) [kPa],vapor or sublimation pressure (310 K) [kPa],vapor or sublimation pressure (320 K) [kPa],vapor or sublimation pressure (330 K) [kPa],vapor or sublimation pressure (340 K) [kPa],vapor or sublimation pressure (350 K) [kPa],vapor or sublimation pressure (360 K) [kPa],vapor or sublimation pressure (370 K) [kPa],vapor or sublimation pressure (380 K) [kPa],vapor or sublimation pressure (390 K) [kPa],vapor or sublimation pressure (400 K) [kPa],vapor or sublimation pressure (410 K) [kPa],vapor or sublimation pressure (420 K) [kPa],vapor or sublimation pressure (430 K) [kPa],vapor or sublimation pressure (440 K) [kPa],vapor or sublimation pressure (450 K) [kPa],vapor or sublimation pressure (460 K) [kPa],vapor or sublimation pressure (470 K) [kPa],vapor or sublimation pressure (480 K) [kPa],vapor or sublimation pressure (490 K) [kPa],further results
CC(C)=CCC/C(C)=C/CC/C(C)=C/CC/C=C(\C)CC/C=C(\C)CCC=C(C)C,3.7e-10,3.1e-09,1.6e-08,7.5e-08,3.1e-07 ± 1.4e-07,1.2e-06,3.9e-06 ± 1.6e-06,1.2e-05 ± 4e-06,3.5e-05 ± 1.2e-05,9.3e-05 ± 7e-06,0.00023 ± 6e-05,0.00055 ± 0.00015,0.0012 ± 0.0002,0.0026 ± 0.0004,0.0053 ± 0.0009,0.01 ± 0.002,0.019 ± 0.002,0.035 ± 0.005,0.061 ± 0.007,0.1 ± 0.011,vapor or sublimation pressure (500 K): 0.17 ± 0.017 kPa; vapor or sublimation pressure (510 K): 0.27 ± 0.025 kPa; vapor or sublimation pressure (520 K): 0.42 ± 0.036 kPa; vapor or sublimation pressure (530 K): 0.63 ± 0.052 kPa; vapor or sublimation pressure (540 K): 0.94 ± 0.073 kPa; vapor or sublimation pressure (550 K): 1.4 ± 0.11 kPa; vapor or sublimation pressure (560 K): 2 ± 0.15 kPa; vapor or sublimation pressure (570 K): 2.8 ± 0.22 kPa; vapor or sublimation pressure (580 K): 3.8 ± 0.29 kPa; vapor or sublimation pressure (590 K): 5.1 ± 0.4 kPa; vapor or sublimation pressure (600 K): 6.9 ± 0.54 kPa; vapor or sublimation pressure (709.1 K): 101.33 ± 10 kPa
"CC(C)CCCC(C)CCCC(C)CCCCC(C)CCCC(C)CCCC(C)C (centres undefined) [2,6,10,15,19,23-hexamethyltetracosane]",1.5e-09,1.2e-08,5.9e-08,2.6e-07,1e-06 ± 4e-07,3.5e-06 ± 1.4e-06,1.1e-05 ± 4e-06,3.4e-05 ± 1.2e-05,9.2e-05 ± 7e-06,0.00024 ± 6e-05,0.00057 ± 0.00015,0.0013 ± 0.0002,0.0028 ± 0.0006,0.0059 ± 0.0011,0.012 ± 0.002,0.022 ± 0.004,0.04 ± 0.005,0.071 ± 0.009,0.121 ± 0.015,0.2 ± 0.021,vapor or sublimation pressure (500 K): 0.32 ± 0.032 kPa; vapor or sublimation pressure (510 K): 0.51 ± 0.046 kPa; vapor or sublimation pressure (520 K): 0.78 ± 0.065 kPa; vapor or sublimation pressure (530 K): 1.2 ± 0.095 kPa; vapor or sublimation pressure (540 K): 1.7 ± 0.13 kPa; vapor or sublimation pressure (550 K): 2.5 ± 0.19 kPa; vapor or sublimation pressure (560 K): 3.5 ± 0.27 kPa; vapor or sublimation pressure (570 K): 4.8 ± 0.37 kPa; vapor or sublimation pressure (580 K): 6.6 ± 0.51 kPa; vapor or sublimation pressure (590 K): 8.9 ± 0.69 kPa; vapor or sublimation pressure (600 K): 12 ± 0.93 kPa; vapor or sublimation pressure (686.4 K): 101.33 ± 10 kPa

# From the NIST ThermoML archive (doi:10.1016/j.jct.2019.03.032)
